{"source": "patent US5124327A", "about": "“HIV reverse transcriptase” (Merck & Co., Inc., priority 1991, dated 1992)", "key": {"[1]": {"system": "HIV-1 strain IIIb", "assay": "Inhibition of virus spread in HIV-infected MT-4 cells (p24 antigen)", "type": "cell-based", "conditions": "Human immunodeficiency virus 1, IIIB, MT4, 72 h, concentration giving greater than 95% reduction in p24 antigen production relative to untreated controls, 3 days incubation, read-out: cell culture inhibitory concentration (CIC95)", "description": "MT cells were infected at Day O at a concentration of 250,000 per ml with a 1:2000 dilution of HIV-1 strain IIIb stock (final 125 pg p24/ml; sufficient to yield ≤1% infected cells on day 1 and 25-100% on day 4). Cells were infected and grown in the following medium: RPMI 1640 (Whittaker BioProducts), 10% inactivated fetal bovine serum, 4 mM glutamine (Gibco Labs) and 1:100 Penicillin-Streptomycin (Gibco Labs).\nThe mixture was incubated overnight at 37° C. in 5% CO2 atmosphere.\nSerial two-fold dilutions of compound were prepared in cell culture medium. At Day 1, aliquots of 125 μl of compound were added to equal volumes of HIV-infected MT-4 cells (50,000 per well) in a 96-well microtiter cell culture plate. Incubation was continued for 3 days at 37° C. in 5% CO2 atmosphere.\nUsing a multichannel pipettor, the settled cells were resuspended and a 125 μl harvested into a separate microtiter plate. […]\nThe concentration of HIV p24 antigen was measured by an enzyme immunoassay,described as follows. Aliquots of p24 antigen to be measured were added to microwells coated with a monoclonal antibody specific for HIV core antigen. […]\nThe cell culture inhibitory concentration (ClC95) for each compound is defined as that concentration which inhibited by greater than 95% the spread of infection, as assessed by a greater than 95% reduction in p24 antigen production relative to untreated controls."}, "[2]": {"target": "T1, recombinant HIV reverse transcriptase (HIV RTR) (Human immunodeficiency virus type 1 group M subtype B, UniProt P04585)", "T1 construct": "recombinant HIV reverse transcriptase (HIV RTR)", "assay": "Reverse transcriptase assay: incorporation of tritiated dGMP into acid-precipitable cDNA", "type": "biochemical", "description": "The assay measures the incorporation of tritiated deoxyguanosine monophosphate by recombinant HIV reverse transcriptase (HIV RTR) (or other RT) into acid-precipitable cDNA at the Km values of dGTP and poly r(C).oligo d(G)12-18.\nThirty uL of a reaction mixture containing equal volumes of: 500 mM Tris.HCl (pH 8.2), 300 mM MgCl2, 1200 mM KCl, 10 mM DTT, 400 μg/mL poly r(c).oligo d(G) [prepared by dissolving 1.5 mg (25 U) poly r(C).oligo d(G) in 1.5 ml sterile distilled H2 O and diluting to 400 μg/ml], 0.1 μCi/μl [^3 H] dGTP, 160 μM dGTP, was added to 10 μl sterile distilled H2 O, 2.5 μl of potential inhibitor and 10 μL of 5 nM purified HIV RTR in tubes. The mixture was incubated at 37° C. for 45 minutes.\nAfter incubation is complete, the tubes were cooled in ice for 5 minutes. Ice-cold 13% TCA containing 10 mM NaPPi (200 μl) are added and the mixture incubated on ice for 30 minutes. The precipitated cDNA is removed by filtration using presoaked glass filters [TCA, NaPPi ]. The precipitate is then washed with 1N HCl, 10 mM NaPPi. The filter discs are then counted in a scintillation counter.\nUnder these conditions [dGTP] and poly r(C).oligo d(G)12-18 each are approximately equal to the appropriate Km value. Approximately 5-6,000 cpm of [^3 H] GMP are incorporated into acid-precipitable material. The RT reaction is concentration- and time-dependent. […]"}}}
{"compound": "[O-][S+](Cc1[nH]c2ccccc2c1Sc1ccccc1)c1ccccc1", "note": "(stereo not drawn) [compound A, 2-Phenylsulfinylmethyl-3-phenylthioindole]", "values": [{"measurement": "IC95", "setting": "[1]", "value": "~100", "unit": "nM"}, {"measurement": "IC50", "setting": "[2]; [dGTP] and poly r(C).oligo d(G)12-18 at approximately Km, 37° C., 45 minutes, read-out: calculated IC50", "value": "~60", "unit": "nM"}, {"measurement": "incorporation of tritiated deoxyguanosine monophosphate into acid-precipitable cDNA", "setting": "[2]; at the Km values of dGTP and poly r(C).oligo d(G)12-18", "value": "inhibits this incorporation"}]}
